Measured values as given in publication PMC10175918 (Communications Biology, 2023).
Like-named read-outs stand apart in the source and are kept apart here.

What was measured:
Assay in all cases: TGFα-shedding assay-based GPCR screening with chimeric Gα subunit proteins
Assay type in all cases: cell-based
348 GPCRs [1] = target: T1, 348 GPCRs (Homo sapiens, UniProt O00155); details: 10µM, Favipiravir 100μM
T1 construct: expressed in transfected cells; host or cells: HEK293A

348 GPCRs [2] = target: T2, 348 GPCRs (Homo sapiens, UniProt O15303); details: 10µM, Favipiravir 100μM
T2 construct: expressed in transfected cells; host or cells: HEK293A
T2 sequence (O15303 25-877): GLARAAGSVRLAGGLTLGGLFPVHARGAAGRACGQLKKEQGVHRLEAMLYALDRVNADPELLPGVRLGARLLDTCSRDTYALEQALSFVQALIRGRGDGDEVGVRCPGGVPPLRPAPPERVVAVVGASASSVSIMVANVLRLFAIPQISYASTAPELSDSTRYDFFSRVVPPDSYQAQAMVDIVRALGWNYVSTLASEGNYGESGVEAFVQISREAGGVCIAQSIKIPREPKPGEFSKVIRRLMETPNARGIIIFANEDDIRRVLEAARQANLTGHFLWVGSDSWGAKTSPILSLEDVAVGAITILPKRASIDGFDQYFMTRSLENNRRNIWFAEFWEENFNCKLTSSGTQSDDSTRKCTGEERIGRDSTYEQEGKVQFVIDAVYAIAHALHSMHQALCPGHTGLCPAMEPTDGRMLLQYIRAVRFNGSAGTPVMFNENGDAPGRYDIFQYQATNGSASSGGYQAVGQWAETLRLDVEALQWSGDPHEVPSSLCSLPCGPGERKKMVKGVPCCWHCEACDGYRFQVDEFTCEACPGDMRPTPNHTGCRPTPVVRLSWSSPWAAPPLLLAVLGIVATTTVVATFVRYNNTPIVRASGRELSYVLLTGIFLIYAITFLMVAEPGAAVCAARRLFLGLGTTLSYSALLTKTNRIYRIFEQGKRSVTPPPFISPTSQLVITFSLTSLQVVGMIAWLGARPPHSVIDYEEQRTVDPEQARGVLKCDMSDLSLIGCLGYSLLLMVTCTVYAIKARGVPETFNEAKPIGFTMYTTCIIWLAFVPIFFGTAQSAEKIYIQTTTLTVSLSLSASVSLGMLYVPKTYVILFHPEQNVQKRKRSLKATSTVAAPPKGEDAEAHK

348 GPCRs [3] = target: 348 GPCRs (Homo sapiens, UniProt O95665); details: NTSR2 (neurotensin receptor type 2); 10µM, Favipiravir 100μM
348 GPCRs (Homo sapiens, UniProt O95665), sequence (O95665 whole entry): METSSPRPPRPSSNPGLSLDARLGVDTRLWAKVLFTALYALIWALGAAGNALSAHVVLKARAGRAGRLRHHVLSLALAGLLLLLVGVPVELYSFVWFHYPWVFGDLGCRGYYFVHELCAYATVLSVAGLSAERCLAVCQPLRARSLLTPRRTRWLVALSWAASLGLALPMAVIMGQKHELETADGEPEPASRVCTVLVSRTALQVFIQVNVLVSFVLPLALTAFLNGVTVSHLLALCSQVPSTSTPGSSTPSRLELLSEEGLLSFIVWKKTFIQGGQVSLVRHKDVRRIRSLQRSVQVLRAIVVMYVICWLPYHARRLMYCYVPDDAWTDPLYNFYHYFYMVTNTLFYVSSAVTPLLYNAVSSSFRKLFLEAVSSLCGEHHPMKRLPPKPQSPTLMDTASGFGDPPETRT

348 GPCRs [4] = target: T3, 348 GPCRs (Homo sapiens, UniProt P28336); details: 10µM, Favipiravir 100μM
T3 construct: expressed in transfected cells; host or cells: HEK293A
T3 sequence (P28336 whole entry): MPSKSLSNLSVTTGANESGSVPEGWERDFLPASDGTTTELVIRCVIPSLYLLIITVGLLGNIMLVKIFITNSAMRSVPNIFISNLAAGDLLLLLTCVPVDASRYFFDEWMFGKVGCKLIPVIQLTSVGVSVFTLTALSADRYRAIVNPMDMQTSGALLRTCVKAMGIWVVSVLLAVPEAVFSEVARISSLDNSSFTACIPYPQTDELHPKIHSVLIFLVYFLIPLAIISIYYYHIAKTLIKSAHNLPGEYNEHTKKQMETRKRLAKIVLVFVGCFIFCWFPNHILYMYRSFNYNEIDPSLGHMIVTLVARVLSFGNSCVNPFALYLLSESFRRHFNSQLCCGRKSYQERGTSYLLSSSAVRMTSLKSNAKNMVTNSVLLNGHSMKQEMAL

348 GPCRs [5] = target: T4, 348 GPCRs (Homo sapiens, UniProt P51679); details: 10µM, Favipiravir 100μM
T4 construct: expressed in transfected cells; host or cells: HEK293A
T4 sequence (P51679 1-360): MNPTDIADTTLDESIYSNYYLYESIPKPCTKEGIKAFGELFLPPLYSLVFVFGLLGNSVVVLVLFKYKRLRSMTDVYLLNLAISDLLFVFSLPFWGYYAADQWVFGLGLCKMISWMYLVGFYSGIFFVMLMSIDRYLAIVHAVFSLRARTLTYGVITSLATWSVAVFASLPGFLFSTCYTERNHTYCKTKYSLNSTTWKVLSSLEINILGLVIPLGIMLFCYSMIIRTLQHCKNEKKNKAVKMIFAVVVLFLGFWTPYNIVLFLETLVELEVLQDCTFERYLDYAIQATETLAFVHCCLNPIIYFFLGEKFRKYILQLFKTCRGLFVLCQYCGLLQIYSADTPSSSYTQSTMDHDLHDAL

348 GPCRs [6] = target: T5, 348 GPCRs (Homo sapiens, UniProt Q5UAW9); details: 10µM, Favipiravir 100μM
T5 construct: expressed in transfected cells; host or cells: HEK293A
T5 sequence (Q5UAW9 whole entry): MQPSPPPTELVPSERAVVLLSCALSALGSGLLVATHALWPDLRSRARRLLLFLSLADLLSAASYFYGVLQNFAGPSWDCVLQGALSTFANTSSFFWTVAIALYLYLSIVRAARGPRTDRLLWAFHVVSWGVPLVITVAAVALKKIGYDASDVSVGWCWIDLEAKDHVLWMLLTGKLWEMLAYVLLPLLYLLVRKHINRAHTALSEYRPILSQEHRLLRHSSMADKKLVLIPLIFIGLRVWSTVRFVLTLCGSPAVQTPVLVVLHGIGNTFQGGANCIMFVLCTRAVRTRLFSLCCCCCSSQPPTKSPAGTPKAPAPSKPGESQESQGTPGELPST

348 GPCRs [7] = target: T6, 348 GPCRs (Homo sapiens, UniProt Q8IWK6); details: 10µM, Favipiravir 100μM
T6 construct: expressed in transfected cells; host or cells: HEK293A
T6 sequence (Q8IWK6 34-1321): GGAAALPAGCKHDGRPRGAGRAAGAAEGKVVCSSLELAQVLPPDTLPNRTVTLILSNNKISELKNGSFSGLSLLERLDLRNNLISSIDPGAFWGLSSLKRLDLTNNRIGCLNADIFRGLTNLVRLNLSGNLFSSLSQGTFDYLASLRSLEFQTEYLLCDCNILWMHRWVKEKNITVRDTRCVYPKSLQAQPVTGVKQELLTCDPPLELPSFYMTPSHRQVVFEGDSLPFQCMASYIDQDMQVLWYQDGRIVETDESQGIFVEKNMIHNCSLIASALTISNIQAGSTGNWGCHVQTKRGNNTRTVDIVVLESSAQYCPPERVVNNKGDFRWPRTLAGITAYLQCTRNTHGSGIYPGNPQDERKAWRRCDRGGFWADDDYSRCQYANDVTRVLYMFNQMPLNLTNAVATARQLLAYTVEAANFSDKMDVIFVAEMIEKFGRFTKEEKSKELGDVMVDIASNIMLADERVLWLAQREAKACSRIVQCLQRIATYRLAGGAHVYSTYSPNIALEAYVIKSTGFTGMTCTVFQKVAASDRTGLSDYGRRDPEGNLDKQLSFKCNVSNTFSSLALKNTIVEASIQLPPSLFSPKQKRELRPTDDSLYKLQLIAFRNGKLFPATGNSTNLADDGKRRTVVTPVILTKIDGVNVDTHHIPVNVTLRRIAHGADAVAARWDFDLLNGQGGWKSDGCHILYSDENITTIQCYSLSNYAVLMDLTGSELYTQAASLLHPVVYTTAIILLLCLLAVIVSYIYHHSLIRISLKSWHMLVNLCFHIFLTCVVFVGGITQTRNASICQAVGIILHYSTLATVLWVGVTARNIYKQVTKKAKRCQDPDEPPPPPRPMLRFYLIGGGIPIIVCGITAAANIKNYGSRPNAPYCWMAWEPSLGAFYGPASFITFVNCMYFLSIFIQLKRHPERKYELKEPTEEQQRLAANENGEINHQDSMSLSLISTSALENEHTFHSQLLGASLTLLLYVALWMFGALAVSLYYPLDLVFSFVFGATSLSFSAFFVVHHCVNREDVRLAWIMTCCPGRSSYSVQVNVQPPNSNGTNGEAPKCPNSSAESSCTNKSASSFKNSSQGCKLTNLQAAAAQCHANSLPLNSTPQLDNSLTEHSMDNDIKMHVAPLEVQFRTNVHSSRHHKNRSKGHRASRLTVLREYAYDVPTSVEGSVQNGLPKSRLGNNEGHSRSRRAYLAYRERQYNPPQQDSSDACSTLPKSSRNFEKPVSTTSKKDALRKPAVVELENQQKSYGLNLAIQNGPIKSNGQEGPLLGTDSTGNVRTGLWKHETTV

348 GPCRs [8] = target: T7, 348 GPCRs (Homo sapiens, UniProt Q99527); details: 10µM, Favipiravir 100μM
T7 construct: expressed in transfected cells; host or cells: HEK293A
T7 sequence (Q99527 whole entry): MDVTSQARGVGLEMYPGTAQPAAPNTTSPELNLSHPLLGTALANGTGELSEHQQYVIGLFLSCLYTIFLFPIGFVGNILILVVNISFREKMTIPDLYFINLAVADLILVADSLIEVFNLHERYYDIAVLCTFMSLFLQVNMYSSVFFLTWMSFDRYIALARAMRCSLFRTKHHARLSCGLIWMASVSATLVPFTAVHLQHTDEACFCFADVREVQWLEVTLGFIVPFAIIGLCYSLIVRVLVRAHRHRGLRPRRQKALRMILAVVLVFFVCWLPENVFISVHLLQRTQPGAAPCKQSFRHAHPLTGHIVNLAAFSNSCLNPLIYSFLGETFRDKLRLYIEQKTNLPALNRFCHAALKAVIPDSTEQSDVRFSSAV

348 GPCRs [9] = target: T8, 348 GPCRs (Homo sapiens, UniProt Q9NYW7); details: 10µM, Favipiravir 100μM
T8 construct: expressed in transfected cells; host or cells: HEK293A
T8 sequence (Q9NYW7 1-299): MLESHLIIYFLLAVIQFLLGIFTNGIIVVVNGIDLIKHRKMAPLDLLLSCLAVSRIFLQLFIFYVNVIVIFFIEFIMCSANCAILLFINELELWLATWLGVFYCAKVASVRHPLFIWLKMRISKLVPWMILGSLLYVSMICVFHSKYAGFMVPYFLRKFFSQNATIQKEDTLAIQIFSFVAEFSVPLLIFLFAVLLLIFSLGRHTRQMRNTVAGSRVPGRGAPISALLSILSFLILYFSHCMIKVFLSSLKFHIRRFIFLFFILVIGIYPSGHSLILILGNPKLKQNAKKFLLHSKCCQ

348 GPCRs [10] = target: T9, 348 GPCRs (Homo sapiens, UniProt Q9Y5Y3)
T9 construct: expressed in transfected cells; host or cells: HEK293A
T9 sequence (Q9Y5Y3 whole entry): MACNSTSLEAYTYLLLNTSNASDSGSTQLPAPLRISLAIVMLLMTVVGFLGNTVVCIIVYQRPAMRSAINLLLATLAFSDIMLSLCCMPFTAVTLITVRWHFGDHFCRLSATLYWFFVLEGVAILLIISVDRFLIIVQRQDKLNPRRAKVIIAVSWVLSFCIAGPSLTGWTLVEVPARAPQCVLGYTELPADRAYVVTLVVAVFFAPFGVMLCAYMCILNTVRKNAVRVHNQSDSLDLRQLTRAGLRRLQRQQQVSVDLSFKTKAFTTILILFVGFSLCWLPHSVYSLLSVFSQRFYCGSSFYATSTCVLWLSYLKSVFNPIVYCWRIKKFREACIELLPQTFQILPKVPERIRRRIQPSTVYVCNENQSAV

[11] = GPR25 (G Protein-Coupled Receptor 25), read-out: % GPCR activation compared to TPA
[12] = GRM6 (glutamate receptor, metabotropic 6), read-out: % GPCR activation compared to TPA
[13] = NMBR (neuromedin B receptor), read-out: % GPCR activation compared to TPA
[14] = CCR4 (C-C motif chemokine receptor 4), read-out: % GPCR activation compared to TPA
[15] = GPR157 (G Protein-Coupled Receptor 157), read-out: % GPCR activation compared to TPA
[16] = GPR125 (Adhesion G Protein-Coupled Receptor A2 (ADGRA3)), read-out: % GPCR activation compared to TPA
[17] = GPER (G protein-coupled estrogen receptor 1), read-out: % GPCR activation compared to TPA
[18] = TAS2R1 (taste receptor, type 2, member 1), read-out: % GPCR activation compared to TPA
[19] = GPCR GPR45 (G Protein-Coupled Receptor 45), read-out: % GPCR activation compared to TPA
[20] = read-out: % GPCR activation compared to TPA, GPR25 (G Protein-Coupled Receptor 25)
[21] = read-out: % GPCR activation compared to TPA, GRM6 (glutamate receptor, metabotropic 6)
[22] = read-out: % GPCR activation compared to TPA, NMBR (neuromedin B receptor)
[23] = read-out: % GPCR activation compared to TPA, CCR4 (C-C motif chemokine receptor 4)
[24] = read-out: % GPCR activation compared to TPA, GPR157 (G Protein-Coupled Receptor 157)
[25] = read-out: % GPCR activation compared to TPA, GPR125 (Adhesion G Protein-Coupled Receptor A2 (ADGRA3))
[26] = read-out: % GPCR activation compared to TPA, GPER (G protein-coupled estrogen receptor 1)
[27] = read-out: % GPCR activation compared to TPA, TAS2R1 (taste receptor, type 2, member 1)
[28] = read-out: % GPCR activation compared to TPA, GPCR GPR45 (G Protein-Coupled Receptor 45)

T1 sequence (O00155 whole entry): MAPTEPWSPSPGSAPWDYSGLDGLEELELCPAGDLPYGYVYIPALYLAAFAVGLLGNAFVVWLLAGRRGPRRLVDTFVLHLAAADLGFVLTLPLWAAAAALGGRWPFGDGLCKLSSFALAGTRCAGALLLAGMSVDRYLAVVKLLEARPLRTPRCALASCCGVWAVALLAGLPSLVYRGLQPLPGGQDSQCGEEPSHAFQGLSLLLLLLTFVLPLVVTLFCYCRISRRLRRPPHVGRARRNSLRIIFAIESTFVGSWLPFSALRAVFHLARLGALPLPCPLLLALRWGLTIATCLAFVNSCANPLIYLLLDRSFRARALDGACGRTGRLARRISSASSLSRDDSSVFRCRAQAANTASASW

| SMILES | activation at 100 µM (348 GPCRs [1]; [11]) [%] | activation at 10 µM (348 GPCRs [2]; [12]) [%] | % GPCR activation compared to TPA (348 GPCRs [3]) [%] | activation at 10 µM (348 GPCRs [4]; [13]) [%] | activation at 100 µM (348 GPCRs [5]; [14]) [%] | activation at 10 µM (348 GPCRs [6]; [15]) [%] | activation at 10 µM (348 GPCRs [7]; [16]) [%] | activation at 10 µM (348 GPCRs [8]; [17]) [%] | activation at 100 µM (348 GPCRs [9]; [18]) [%] | activation at 10 µM (348 GPCRs [10]; [19]) [%] | activation at 100 µM (348 GPCRs [1]; [20]) [%] | activation at 10 µM (348 GPCRs [2]; [21]) [%] | activation at 10 µM (348 GPCRs [4]; [22]) [%] | activation at 100 µM (348 GPCRs [5]; [23]) [%] | activation at 10 µM (348 GPCRs [6]; [24]) [%] | activation at 10 µM (348 GPCRs [7]; [25]) [%] | activation at 10 µM (348 GPCRs [8]; [26]) [%] | activation at 100 µM (348 GPCRs [9]; [27]) [%] | activation at 10 µM (348 GPCRs [10]; [28]) [%] | activation at 100 µM (348 GPCRs [10]; GPCR GPR45 (G Protein-Coupled Receptor 45), 100μM, read-out: % GPCR activation compared to TPA) [%] |
| --- | --- | --- | --- | --- | --- | --- | --- | --- | --- | --- | --- | --- | --- | --- | --- | --- | --- | --- | --- | --- |
| N#C[C@@]1(c2ccc3c(N)ncnn23)O[C@H](CO)[C@@H](O)[C@H]1O [GS441524] | -1.73 | -1.17 | 1.005 | -1.1 | -0.385 | -1.23 | -0.689 | -3.06 | -0.408 | -0.0256 |  |  |  |  |  |  |  |  |  |  |
| CC(C)OC(=O)[C@H](C)N[P@](=O)(OC[C@H]1O[C@@H](n2ccc(=O)[nH]c2=O)[C@](C)(F)[C@@H]1O)Oc1ccccc1 [sofosbuvir] |  |  | 0.2553 |  |  |  |  |  |  |  | -0.661 | 2.66 | -0.697 | -2.38 | 3.51 | 0.926 | -0.815 | -0.974 | 0.955 |  |
| CCC(CC)COC(=O)[C@H](C)N[P@](=O)(OC[C@H]1O[C@@](C#N)(c2ccc3c(N)ncnn23)[C@H](O)[C@@H]1O)Oc1ccccc1 [remdesivir] |  |  | -1.859 |  |  |  |  |  |  |  | -2.29 | -1.74 | 0.461 | 1.77 | 1.04 | -0.226 | 1.6 | 0.931 | 0.315 |  |
| CC(C)C(=O)OC[C@H]1O[C@@H](n2ccc(NO)nc2=O)[C@H](O)[C@@H]1O [molnupiravir] | -2.16 | -2.76 | 0.1275 | 0.279 | 1.67 | -0.773 | -0.998 | -1.26 | -0.93 | 0.592 |  |  |  |  |  |  |  |  |  |  |
| NC(=O)c1nc(F)cnc1O [favipiravir, 6-fluoro-3-hydroxy-2-pyrazinecarboxamide] | -2.15 | -0.482 | -3.411 | -0.624 | 0.85 | -0.889 | -1.96 | -2.76 | -0.27 |  |  |  |  |  |  |  |  |  |  | -0.546 |
